Values quoted from earlier work, collected in US8481490B2, “Method of reducing plasma amylase and/or plasma lipase in patients with pancreatitis” (Amylin Pharmaceuticals, LLC, priority 2010, dated 2013).

System: diabetic transgenic HIP rats
Conditions: one rat with histological features of acute pancreatitis

Structure (SMILES): N[C@@H](CC(=O)N1CCn2c(nnc2C(F)(F)F)C1)Cc1cc(F)c(F)cc1F [sitagliptin]
- ductal cell turnover and metaplasia: increased ductal cell turnover and metaplasia
